From ChEMBL document CHEMBL3817750, “New hydrazones of 5-nitro-2-furaldehyde with adamantanealkanohydrazides: synthesis and in vitro trypanocidal activity” (Medchemcomm, 2016) come the findings set out here.

Data set [1] deals with Trypanosoma brucei. Briefly: Trypanocidal activity against bloodstream form of Trypanosoma brucei 427 assessed as reduction in parasitic growth after 48 hrs by Alamar blue assay. It counts as functional, organism-based. The following applies: Trypanosoma brucei, 427, 48 h.
The test system of data set [2] is L6. Briefly: Cytotoxicity against rat L6 cells after 6 days by Alamar blue assay. It counts as cell-based.
The nature of data set [3]: Selectivity index, ratio of IC50 for rat L6 cells to IC50 for bloodstream form of Trypanosoma brucei 427. In kind it is toxicity, cell-based. As to conditions: read-out: Ratio IC50.
Data set [4] concerns Trypanosoma cruzi. Briefly: Trypanocidal activity against epimastigote form of Trypanosoma cruzi CL Brener assessed as reduction in parasitic growth after 4 days by Alamar blue assay. It counts as functional. The following applies: 96 h.
A short description of data set [5]: Selectivity index, ratio of IC50 for rat L6 cells to IC50 for epimastigote form of Trypanosoma cruzi CL Brener. It counts as toxicity, cell-based. As to conditions: read-out: Ratio IC50.
[6] abbreviates: Rattus norvegicus, L6, 144 h, read-out: IC50.

Some results are limits rather than exact numbers.

With `O=C(CC12CC3CC(CC(C3)C1)C2)N/N=C/c1ccc([N+](=O)[O-])o1`, the IC50 was found to be 242 nM in data set [1], 3170 nM in data set [2] (setting [6]) and 205 nM in data set [4]. The IC90 came out at 553 nM in data set [1] and 568 nM in data set [4]. Moreover, the selectivity ratio in data set [3] stood at 13; in data set [5], 15.

Consider `O=C(N/N=C/c1ccco1)C12CC3CC(CC(C3)C1)C2`, for which the IC50 in data set [1], in data set [2] (setting [6]) and in data set [4] was over 35000 nM in each case. Further, the IC90 in data set [1] and in data set [4] was over 35000 nM in each case.

On to `O=C(N/N=C/c1ccc([N+](=O)[O-])o1)C1C2CC3CC(C2)CC1C3` (stereo unspecified), for which the IC50 came out at 231 nM in data set [1], 19200 nM in data set [2] (setting [6]) and 844 nM in data set [4]. Moreover, the IC90 came out at 599 nM in data set [1] and 1960 nM in data set [4]. The selectivity ratio came to 83 in data set [3] and 23 in data set [5].

As to `O=C(CCC12CC3CC(C1)CC(c1ccccc1)(C3)C2)N/N=C/c1ccc([N+](=O)[O-])o1`, the figures for the IC50 in data set [1], in data set [2] (setting [6]) and in data set [4] were 90 nM, 4590 nM and 238 nM, respectively. Also, the IC90 in data set [1] came out at 167 nM; in data set [4], 654 nM. In addition, the selectivity ratio is 51 in data set [3] and 17 in data set [5].

Take `O=C(CC12CC3CC(CC(C3)C1)C2)N/N=C/c1ccco1`: the IC50 in data set [1], in data set [2] (setting [6]) and in data set [4] was over 35000 nM throughout. The IC90 in data set [1] and in data set [4] was over 35000 nM in each case.

As to `O=C(CCC12CC3CC(C1)CC(C1CCCC1)(C3)C2)N/N=C/c1ccc([N+](=O)[O-])o1`, the IC50 in data set [1] amounted to 158 nM; in data set [2] (setting [6]) it was 4600 nM; in data set [4], 140 nM. Moreover, the values for the IC90 in data set [1] and in data set [4] were 322 nM and 803 nM, respectively. Moreover, the selectivity ratio in data set [3] came to 29; in data set [5], 33.

With `O=C(CCC12CC3CC(CC(C3)C1)C2)N/N=C/c1ccco1`, the IC50 is over 30000 nM in data set [1], over 30000 nM in data set [2] (setting [6]) and 6090 nM in data set [4]. The values for the IC90 in data set [1] and in data set [4] were over 30000 nM and 15700 nM, respectively.

Consider `O=C(N/N=C/c1ccc([N+](=O)[O-])o1)C12CC3CC(CC(C3)C1)C2`, for which the figures for the IC50 in data set [1], in data set [2] (setting [6]) and in data set [4] were 851 nM, 7720 nM and 561 nM, respectively. Besides, the IC90 in data set [1] came to 1040 nM; in data set [4], 992 nM. For the same compound, the selectivity ratio in data set [3] stood at 9; in data set [5], 14.

Take `O=C(N/N=C/c1ccc([N+](=O)[O-])o1)C12CC3CC(C1)CC(C1CCCC1)(C3)C2`: the IC50 in data set [1] was found to be 216 nM; in data set [2] (setting [6]), 11000 nM; in data set [4], 225 nM. The IC90 stood at 425 nM in data set [1] and 528 nM in data set [4]. The selectivity ratio in data set [3] stood at 51; in data set [5], 49.

As to `O=C(CCC1C2CC3CC(C2)CC1C3)N/N=C/c1ccc([N+](=O)[O-])o1` (stereo unspecified), the IC50 in data set [1] came to 122 nM; in data set [2] (setting [6]), 2380 nM; in data set [4], 206 nM. In addition, the IC90 in data set [1] was found to be 177 nM; in data set [4], 513 nM. Moreover, the selectivity ratio in data set [3] amounted to 20; in data set [5] it was 12.

Consider `O=C(CC12CC3CC(C1)CC(C1CCCC1)(C3)C2)N/N=C/c1ccc([N+](=O)[O-])o1`, for which the IC50 came out at 306 nM in data set [1], 8790 nM in data set [2] (setting [6]) and 178 nM in data set [4]. Besides, the IC90 in data set [1] was 459 nM; in data set [4], 329 nM. Moreover, the selectivity ratio in data set [3] is 29; in data set [5], 49.

As to `CCOC(=O)CC12CC3CC(CC(CC(=O)N/N=C/c4ccc([N+](=O)[O-])o4)(C3)C1)C2`, the IC50 was determined as 223 nM in data set [1], 7490 nM in data set [2] (setting [6]) and 204 nM in data set [4]. Further, the IC90 in data set [1] is 643 nM; in data set [4] it was 478 nM. For the same compound, the selectivity ratio was 34 in data set [3] and 32 in data set [5].

As to `O=C(CC1C2CC3CC(C2)CC1C3)N/N=C/c1ccc([N+](=O)[O-])o1` (stereo unspecified), the IC50 turned out to be 126 nM in data set [1], 3260 nM in data set [2] (setting [6]) and 202 nM in data set [4]. Also, the IC90 amounted to 207 nM in data set [1] and 381 nM in data set [4]. Also, the selectivity ratio in data set [3] was 26; in data set [5], 16.

Consider `O=C(CCC12CC3CC(CC(C3)C1)C2)N/N=C/c1ccc([N+](=O)[O-])o1`, for which the results for the IC50 in data set [1], in data set [2] (setting [6]) and in data set [4] were 386 nM, 16000 nM and 348 nM, respectively. In addition, the IC90 in data set [1] came to 560 nM; in data set [4], 719 nM. Besides, the selectivity ratio in data set [3] came to 41; in data set [5], 56.

Turning to `O=C(CC12CC3CC(C1)CC(c1ccccc1)(C3)C2)N/N=C/c1ccc([N+](=O)[O-])o1`, the values for the IC50 in data set [1], in data set [2] (setting [6]) and in data set [4] were 221 nM, 5020 nM and 91 nM, respectively. In addition, the IC90 in data set [1] amounted to 573 nM; in data set [4], 180 nM. For the same compound, the selectivity ratio in data set [3] was 23; in data set [5] it was 55.

In the case of `O=C(N/N=C/c1ccc([N+](=O)[O-])o1)C12CC3CC(C1)CC(c1ccccc1)(C3)C2`, the IC50 in data set [1] stood at 244 nM; in data set [2] (setting [6]), 11400 nM; in data set [4], 368 nM. Besides, the IC90 worked out at 406 nM in data set [1] and 676 nM in data set [4]. In addition, the selectivity ratio came out at 47 in data set [3] and 31 in data set [5].

On to `O=C(N/N=C/c1ccc([N+](=O)[O-])o1)C12CC3CC(C1)CC(C(=O)N/N=C/c1ccc([N+](=O)[O-])o1)(C3)C2`, for which the IC50 in data set [1] was 75 nM; in data set [2] (l6) it was “ND(Insoluble)”; in data set [4] it was over 2000 nM. Further, the IC90 in data set [1] is 98 nM; in data set [4], over 2000 nM.
